From US20150197497A1, “SELECTIVE INHIBITORS OF HISTONE DEACETYLASE ISOFORM 6 AND METHODS THEREOF” (DANA-FARBER CANCER INSTITUTE, INC., priority 2011, published 2015)

Experiments:
HDAC7 = target: T1, HDAC7 (Homo sapiens, UniProt Q8WUI4); assay: In vitro HDAC enzyme inhibition assay, HDAC7; format: biochemical; conditions: for HDAC7/HDAC6 in vitro selectivity: ratio of IC50 for HDAC7 relative to that of HDAC6; for IC50: recombinant full-length HDAC7, substrate MAZ1675 22 μM; for selectivity toward HDAC6 compared to HDAC7 (in words): tested in vitro
T1 construct: Recombinant, full-length HDAC protein (BPS Biosciences) was incubated with fluorophore conjugated substrate; purchased BPS Biosciences
T1 sequence (Q8WUI4 1-952): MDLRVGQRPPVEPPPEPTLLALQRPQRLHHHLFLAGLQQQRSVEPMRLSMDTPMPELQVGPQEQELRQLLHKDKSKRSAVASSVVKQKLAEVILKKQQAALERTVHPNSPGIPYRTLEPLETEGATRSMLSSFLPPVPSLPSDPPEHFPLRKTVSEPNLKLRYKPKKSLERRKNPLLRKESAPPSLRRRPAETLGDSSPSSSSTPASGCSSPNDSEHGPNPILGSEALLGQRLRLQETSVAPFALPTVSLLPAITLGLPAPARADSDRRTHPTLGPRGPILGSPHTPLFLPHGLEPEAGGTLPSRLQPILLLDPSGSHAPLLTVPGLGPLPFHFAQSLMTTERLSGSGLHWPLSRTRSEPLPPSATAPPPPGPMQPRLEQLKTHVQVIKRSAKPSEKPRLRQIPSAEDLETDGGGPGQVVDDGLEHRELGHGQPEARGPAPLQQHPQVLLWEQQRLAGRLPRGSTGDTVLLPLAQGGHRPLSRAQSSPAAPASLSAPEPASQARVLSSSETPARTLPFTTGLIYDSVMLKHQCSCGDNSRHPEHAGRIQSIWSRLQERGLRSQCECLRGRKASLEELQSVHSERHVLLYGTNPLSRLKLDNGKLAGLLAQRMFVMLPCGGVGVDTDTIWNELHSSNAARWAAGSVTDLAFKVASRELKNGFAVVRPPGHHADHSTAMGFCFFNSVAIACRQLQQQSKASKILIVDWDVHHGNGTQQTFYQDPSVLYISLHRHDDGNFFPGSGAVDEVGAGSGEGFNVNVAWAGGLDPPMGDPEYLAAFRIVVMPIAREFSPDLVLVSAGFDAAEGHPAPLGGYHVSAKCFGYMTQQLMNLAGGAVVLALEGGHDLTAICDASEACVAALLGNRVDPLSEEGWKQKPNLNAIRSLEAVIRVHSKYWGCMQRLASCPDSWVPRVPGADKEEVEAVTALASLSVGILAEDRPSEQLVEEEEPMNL
Experimental: (§1) In vitro Histone Deacetylase enzyme assays were performed using Class I (isoforms: HDAC1, HDAC2, HDAC3 and HDAC8), class IIa (isoforms: HDAC4, HDAC5, HDAC7 and HDAC9) and class IIb (isoform HDAC6).
(§2) HDAC activities were determined in vitro with an optimized homogenous assay performed in a 384-well plate. Recombinant, full-length HDAC protein (BPS Biosciences) was incubated with fluorophore conjugated substrate, MAZ1600 and MAZ1675, at Km=[S]. […] Reactions were performed in assay buffer (50 mM HEPES, 100 mM KCl, 0.001% Tween-20, 0.05% BSA, 200 μM tris(2-carboxyethyl)phosphine (TCEP), pH 7.4) and followed for fluorogenic release of 7-amino-4-methylcoumarin from substrate upon deacetylase and trypsin enzymatic activity. Fluorescence measurements were obtained every five minutes using a multilabel plate reader and plate-stacker (Envision; Perkin-Elmer). Each plate was analyzed by plate repeat, and the first derivative within the linear range was imported into analytical software (Spotfire DecisionSite and GraphPad Prism). Replicate experimental data from incubations with inhibitor were normalized to controls.

HDAC1 = target: T2, HDAC1 (Homo sapiens, UniProt Q13547); assay: In vitro HDAC enzyme inhibition assay, HDAC1; format: biochemical; conditions: for HDAC1/HDAC6 in vitro selectivity: ratio of IC50 for HDAC1 relative to that of HDAC6; for IC50: recombinant full-length HDAC1, substrate MAZ1600 21 μM
T2 construct: Recombinant, full-length HDAC protein (BPS Biosciences) was incubated with fluorophore conjugated substrate; purchased BPS Biosciences
Experimental: as §1, §2

acetylated tubulin = assay: High-content image analysis of induction of acetylated tubulin in A549 cells; conditions: for levels of acetylated tubulin, dose response (in words) / AcHistone/AcTubulin in cell selectivity toward HDAC6: A549 cells; for levels of acetylated tubulin, dose response (in words): FIG. 11; for EC50: Homo sapiens, A549, 8 h, read-out: EC50 for half-maximal induction of acetylated tubulin (AcTubulin); for AcHistone/AcTubulin in cell selectivity toward HDAC6: ratio of EC50 acetylated histone to EC50 acetylated tubulin
Experimental: Cells were treated with each test HDACi compound with an automated pin transfer instrument (Janus, Perkin Elmer) and incubated for 8 hours. […] Fixation solution was aspirated and 90 μL of washing solution (0.1% Triton X-100 in PBS) was added prior to 10 minute incubation at 4° C. Washing solution was aspirated and cells were incubated at 4° C. for about 1 hour in blocking solution (0.1% Triton X-100+2% BSA in PBS). Washing solution was aspirated, and cells were incubated for about 1 hour at 4° C. in primary antibody for acetylated-tubulin (Sigma T7451) and acetylated-histone (Cell Signaling #9441L) at a 1:1000 dilution in blocking solution. Primary antibody solution was aspirated, and cells were washed three times in 90 μL of washing solution. […] Secondary antibody and nuclear staining solution was aspirated and cells were washed three times in 90 μL of washing solution. After the third wash, 50 μL of PBS was added to each well. Image acquisition was done on a high content imaging microscope (ImageXpress Micro, Molecular Devices), and image analysis (MetaXpress, Molecular Devices) was performed to obtain average acetylated-tubulin and acetylated-histone signal per cell based on treatment. Replicate experimental data from incubations with inhibitor were normalized to DMSO controls.

T2 sequence (Q13547 whole entry): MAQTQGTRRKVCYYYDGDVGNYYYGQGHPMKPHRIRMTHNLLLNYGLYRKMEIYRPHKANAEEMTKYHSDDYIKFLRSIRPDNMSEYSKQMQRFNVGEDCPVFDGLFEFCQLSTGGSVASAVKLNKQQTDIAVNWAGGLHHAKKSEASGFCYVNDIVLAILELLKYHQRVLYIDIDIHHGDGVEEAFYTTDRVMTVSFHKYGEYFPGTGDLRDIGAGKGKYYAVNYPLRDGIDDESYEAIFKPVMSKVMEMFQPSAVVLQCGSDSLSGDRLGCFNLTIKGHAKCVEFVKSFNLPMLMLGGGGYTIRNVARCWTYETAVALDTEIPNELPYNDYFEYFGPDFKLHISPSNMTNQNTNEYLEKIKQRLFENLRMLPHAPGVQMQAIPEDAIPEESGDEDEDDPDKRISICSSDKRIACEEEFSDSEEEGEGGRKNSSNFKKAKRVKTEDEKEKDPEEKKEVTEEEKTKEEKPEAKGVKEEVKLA

Compound	HDAC7/HDAC6 in vitro selectivity (HDAC7)	IC50 (HDAC7) [nM]	HDAC1/HDAC6 in vitro selectivity (HDAC1)	IC50 (HDAC1) [nM]	levels of acetylated tubulin, dose response (in words) (acetylated tubulin)	EC50 (acetylated tubulin) [nM]	AcHistone/AcTubulin in cell selectivity toward HDAC6 (acetylated tubulin)	selectivity toward HDAC6 compared to HDAC7 (in words) (HDAC7)
O=C(NO)c1ccc(Cn2c(C(F)(F)F)nc3ccccc32)cc1 [A1, N-hydroxy-4-((2-(trifluoromethyl)-1H-benzo[d]imidazol-1-yl)methyl)benzamide]	255	121	1444	682	dose-dependent increase	452	14.01	
Cc1ccc2c(c1)nc(C(F)(F)F)n2Cc1ccc(C(=O)NO)cc1 [A2, N-hydroxy-4-((5-methyl-2-(trifluoromethyl)-1H-benzo[d]imidazol-1-yl)methyl)benzamide]	348	106	808	247		100	2.411	
O=C(NO)c1ccc(Cn2c(C(F)(F)F)nc3cc(F)ccc32)cc1 [A3, 4-((5-fluoro-2-(trifluoromethyl)-1H-benzo[d]imidazol-1-yl)methyl)-N-hydroxybenzamide]	484	278	812	466		77.3	7.664	
O=C(NO)c1ccc(Cn2c(C(F)(F)F)nc3cc(Cl)ccc32)cc1 [A4, 4-((5-chloro-2-(trifluoromethyl)-1H-benzo[d]imidazol-1-yl)methyl)-N-hydroxybenzamide]	323	374	343	398	dose-dependent increase	275	54.11	
O=C(NO)c1ccc(Cn2c(C(F)(F)F)nc3cc(Br)ccc32)cc1 [A5, 4-((5-bromo-2-(trifluoromethyl)-1H-benzo[d]imidazol-l-yl)methyl)-N-hydroxybenzamide]	735	228	541	167		190	10.17	
COc1ccc2c(c1)nc(C(F)(F)F)n2Cc1ccc(C(=O)NO)cc1 [A6, N-hydroxy-4-((5-methoxy-2-(trifluoromethyl)-1H-benzo[d]imidazol-1-yl)methyl)benzamide]	1058	414	629	246		212	12.2081	
O=C(NO)c1ccc(Cn2cnc3ccccc32)cc1 [A7]	2606	255	2695	264		159	1.459	
Cc1ccc2c(c1)ncn2Cc1ccc(C(=O)NO)cc1 [A8, N-hydroxy-4-((5-methyl-1H-benzo[d]imidazol-1-yl)methyl)benzamide]	1098	418	688	262		105	0.7591	
O=C(NO)c1ccc(Cn2cnc3cc(F)ccc32)cc1 [A9, 4-((5-fluoro-1H-benzo[d]imidazol-1-yl)methyl)-N-hydroxybenzamide]	4925	327	2812	186		132	0.4765	
O=C(NO)c1ccc(Cn2cnc3cc(Cl)ccc32)cc1 [A10, 4-((5-chloro-1H-benzo[d]imidazol-1-yl)methyl)-N-hydroxybenzamide]	4029	278	1399	96.5		188	4.787	
O=C(NO)c1ccc(Cn2cnc3cc(Br)ccc32)cc1 [A11, 4-((5-bromo-1H-benzo[d]imidazol-1-yl)methyl)-N-hydroxybenzamide]	4265	71.1	1725	28.7		174	11.31	
COc1ccc2c(c1)ncn2Cc1ccc(C(=O)NO)cc1 [A12, N-hydroxy-4-((5-methoxy-1H-benzo[d]imidazol-1-yl)methyl)benzamide]	4070	883	1378	299		221	0.4738	
O=C(NO)c1ccc(Cn2c(=O)[nH]c3ccccc32)cc1 [B1, N-hydroxy-4-((2-oxo-2,3-dihydro-1H-benzo[d]imidazol-1-yl)methyl)benzamide]	30509	443	9665	140		89.4	2.941	exceptionally high selectivity (Inhibitors with in vitro selectivity values for HDAC6 of at least 30,000 are considered to have exceptionally high selectivity toward HDAC6)
Cc1ccc2c(c1)[nH]c(=O)n2Cc1ccc(C(=O)NO)cc1 [B2, N-hydroxy-4-((5-methyl-2-oxo-2,3-dihydro-1H-benzo[d]imidazol-1-yl)methyl)benzamide]	55678	159	4622	13.2		95.3	2.402	exceptionally high selectivity (Inhibitors with in vitro selectivity values for HDAC6 of at least 30,000 are considered to have exceptionally high selectivity toward HDAC6)
O=C(NO)c1ccc(Cn2c(=O)[nH]c3cc(F)ccc32)cc1 [B3, 4-((5-fluoro-2-oxo-2,3-dihydro-1H-benzo[d]imidazol-1-yl)methyl)N-hydroxybenzamide]	17021	367	2749	59.3		70.2	21.1	
O=C(NO)c1ccc(Cn2c(=O)[nH]c3cc(Cl)ccc32)cc1 [B4, 4-((5-chloro-2-oxo-2,3-dihydro-1H-benzo[d]imidazol-1-yl)methyl)-N-hydroxybenzamide]	3153	79.6	209	5.29		80.5	5.217	
O=C(NO)c1ccc(Cn2c(=O)[nH]c3cc(Br)ccc32)cc1 [B5, 4-((5-bromo-2-oxo-2,3-dihydro-1H-benzo[d]imidazol-1-yl)methyl)-N-hydroxybenzamide]	9297	190	508	10.4		132	6.398	
O=C(NO)c1ccc(Cn2c(=O)[nH]c3cc(C(F)(F)F)ccc32)cc1 [B6, N-hydroxy-4-((2-oxo-5-(trifluoromethyl)-2,3-dihydro-1H-benzo[d]imidazol-1-yl)methyl)benzamide]	38222	237	1951	12.1	dose-dependent increase	48.5	12.98	
